IC50 data for 28 compounds are collected here from patent publication US8334382B2, “Substituted biaryl piperazinyl-pyridine analogues” (Neurogen Corporation, priority 2004, dated 2012).

The test deals with T1, human capsaicin receptor (Homo sapiens, UniProt Q8NER1).
T1 construct: expressed in transfected cells; host or cells: HEK293, stably transfected with pBK-CMV construct
The test is described as follows: Calcium mobilization assay, determination of antagonist activity. As to conditions: capsaicin at EC50; cells expressing human capsaicin receptor; Example 6. In kind it is cell-based. The essentials:
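IC50 is the antagonist level giving a 50% drop in the capsaicin (EC50) calcium signal, read by FLIPR in Fluo-3 AM-loaded stable HEK293 lines bearing full-length human receptor. Compounds at 1-5 µM final were preincubated 0.5-6 h, room temperature, dark, in KRH pH 7.4.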
On the technique in general: A change in cytosolic calcium serves as a functional read-out for many receptors and channels.

T1 sequence (Q8NER1 whole entry): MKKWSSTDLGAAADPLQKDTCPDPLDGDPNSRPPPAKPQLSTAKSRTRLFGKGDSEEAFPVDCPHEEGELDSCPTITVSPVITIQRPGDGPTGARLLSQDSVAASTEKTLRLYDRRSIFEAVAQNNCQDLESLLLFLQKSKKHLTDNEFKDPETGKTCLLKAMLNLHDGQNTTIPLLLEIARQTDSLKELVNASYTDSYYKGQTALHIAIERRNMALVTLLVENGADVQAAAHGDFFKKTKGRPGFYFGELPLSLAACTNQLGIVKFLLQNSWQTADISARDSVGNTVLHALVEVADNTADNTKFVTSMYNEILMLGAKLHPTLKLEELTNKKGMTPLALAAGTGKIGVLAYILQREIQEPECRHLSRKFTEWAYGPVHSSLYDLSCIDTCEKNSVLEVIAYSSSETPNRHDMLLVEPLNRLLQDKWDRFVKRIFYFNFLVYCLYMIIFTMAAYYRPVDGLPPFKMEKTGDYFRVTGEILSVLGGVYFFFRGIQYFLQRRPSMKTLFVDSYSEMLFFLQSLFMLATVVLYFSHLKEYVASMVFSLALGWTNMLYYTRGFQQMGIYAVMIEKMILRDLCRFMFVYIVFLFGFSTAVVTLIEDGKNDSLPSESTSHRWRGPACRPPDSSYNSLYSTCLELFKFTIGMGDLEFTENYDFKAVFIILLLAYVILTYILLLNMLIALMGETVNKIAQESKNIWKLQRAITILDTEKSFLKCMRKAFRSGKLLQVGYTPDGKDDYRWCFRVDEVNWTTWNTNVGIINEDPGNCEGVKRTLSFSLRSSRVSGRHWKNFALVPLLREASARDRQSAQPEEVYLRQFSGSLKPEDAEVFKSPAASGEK

As usually defined, the IC50 is the concentration needed to halve the response being measured. Regarding `Cc1cc(C(=O)N2CCN(C)CC2)cnc1N1CCN(c2cc(-c3ccc(F)cc3)nc(N3CCCC3C)n2)CC1` (stereo not shown) [Example 131, 4-(4-fluorophenyl)-6-(4-{3-methyl-5-[(4-methylpiperazin-1-yl)carbonyl]pyridin-2-yl}piperazin-1-yl)-2-(2-methylpyrrolidin-1-yl)pyrimidine], the half-inhibitory concentration (IC50) was no more than 1000 nM.

Consider `Cc1cc(C(=O)O)cnc1N1CCN(c2cc(-c3ccnc(C(C)C)c3)nc(N3CCCC3C)n2)[C@H](C)C1` (stereo partly drawn) [Example 80, 6-{4-[6-(2-Isopropyl-pyridin-4-yl)-2-(2-methyl-pyrrolidin-1-yl)-pyrimidin-4-yl]-3-(R)-methyl-piperazin-1-yl}-5-methyl-nicotinic acid], for which the IC50 is no more than 1000 nM.

As to `CCOC(=O)c1cnc(N2CCN(c3cc(-c4ccnc(C(C)C)c4)nc(N4CCCC4C)n3)[C@H](C)C2)c(C)c1` (stereo partly drawn) [Example 61, 6-{4-[6-(2-Isopropyl-pyridin-4-yl)-2-(2-methyl-pyrrolidin-1-yl)-pyrimidin-4-yl]-3-(R)-methyl-piperazin-1-yl}-5-methyl-nicotinic acid ethyl ester], the half-maximal inhibitory concentration (IC50) is no more than 1000 nM.

Take `CC1CCCN1c1nc(-c2ccc(F)c(Cl)c2)cc(N2CCN(c3ncc(C(=O)O)cc3Cl)C[C@H]2C)n1` (stereo partly drawn) [Example 9, 5-Chloro-6-{4-[6-(3-chloro-4-fluoro-phenyl)-2-(2-methyl-pyrrolidin-1-yl)-pyrimidin-4-yl]-3-(R)-methyl-piperazin-l-yl}-nicotinic acid]: the IC50 was no more than 1000 nM.

On to `CC(C)N(C)c1nc(-c2ccc(F)cc2)cc(N2CCN(c3ncc(C(=O)O)cc3Cl)CC2)n1` [Example 160, 5-Chloro-6-{4-[6-(4-fluoro-phenyl)-2-(isopropyl-methyl-amino)-pyrimidin-4-yl]-piperazin-1-yl}-nicotinic acid], for which the concentration for half-maximal inhibition (IC50) was no more than 1000 nM.

On to `Cc1cc(C(=O)O)cnc1N1CCN(c2cc(-c3ccc(F)cc3)nc(N(C)C)n2)[C@H](C)C1` [Example 81, 6-{4-[2-Dimethylamino-6-(4-fluoro-phenyl) - pyrimidin-4-yl]-3-(R)-methyl-piperazin-1-yl}-5-methyl-nicotinic acid], for which the IC50 is no more than 1000 nM.

As to `CC1CCCN1c1nc(-c2ccc(F)cc2)cc(N2CCN(c3ncc(CC(N)=O)cc3Cl)CC2)n1` (stereo not shown) [Example 152, 2-(5-Chloro-6-{4-[6-(4-fluoro-phenyl)-2-(2-methyl-pyrrolidin-1-yl)-pyrimidin-4-yl]-piperazin-1-yl}-pyridin-3-yl)-acetamide], the concentration for half-maximal inhibition (IC50) is no more than 1000 nM.

For `Cc1cc(C(=O)N(C)CCCN(C)C)cnc1N1CCN(c2cc(-c3ccc(F)cc3)nc(N3CCCC3C)n2)CC1` (stereo not shown) [Example 137, N-[3-(dimethylamino)propyl]-6-{4-[6-(4-fluorophenyl)-2-(2-methylpyrrolidin-1-yl)pyrimidin-4-yl]piperazin-1-yl}-N,5-dimethylnicotinamide], the 50% inhibitory concentration (IC50) was no more than 1000 nM.

With `Cc1cc(C(=O)N2CCSCC2)cnc1N1CCN(c2cc(-c3ccc(F)cc3)nc(N3CCCC3C)n2)CC1` (stereo not shown) [Example 127, 4-[(6-{4-[6-(4-fluorophenyl)-2-(2-methylpyrrolidin-1-yl)pyrimidin-4-yl]piperazin-1-yl}-5-methylpyridin-3-yl)carbonyl] thiomorpholine], the IC50 is no more than 1000 nM.

`C[C@@H]1CN(c2ncc(C(=O)O)cc2C(F)(F)F)CCN1c1cc(-c2ccc(F)cc2)nc(N2CCC[C@H]2C)n1` [Example 179, 6-{4-[6-(4-Fluoro-phenyl)-2-(2-(R)-methyl-pyrrolidin-1-yl)-pyrimidin-4-yl]-3-(R)-methyl-piperazin-1-yl}-5-trifluoromethyl-nicotinic acid]: the IC50 was no more than 1000 nM.

As for `Cc1cc(C(=N)N)cnc1N1CCN(c2cc(-c3ccc(F)cc3)nc(N3CCCC3C)n2)CC1` (stereo not shown) [Example 91, 6-{4-[6-(4-fluorophenyl)-2-(2-methylpyrrolidin-1-yl)pyrimidin-4-yl]piperazin-1-yl}-5-methylpyridine-3-carboximidamide], the IC50 is no more than 1000 nM.

Consider `Cc1cc(OCCO)cnc1N1CCN(c2cc(-c3ccc(F)cc3)nc(N3CCC[C@H]3CO)n2)[C@H](C)C1` [Example 184, 2-{[6-((3R)-4-{6-(4-fluorophenyl)-2-[(2S)-2-(hydroxymethyl)pyrrolidin-1-yl]pyrimidin-4-yl}-3-methylpiperazin-1-yl)-5-methylpyridin-3-yl]oxy}ethanol], for which the IC50 is no more than 1000 nM.

Turning to `CCOC(=O)c1cnc(N2CCN(c3cc(-c4cccc(C)c4)nc(N4CCCC4C)n3)[C@H](C)C2)c(C)c1` (stereo partly drawn) [Example 59, 5-Methyl-6-{3-(R)-methyl-4-[2-(2-methyl-pyrrolidin-1-yl)-6-m-tolyl-pyrimidin-4-yl]-piperazin-1-yl}-nicotinic acid ethyl ester], the IC50 was no more than 1000 nM.

With `C[C@@H]1CN(c2ncc(C(N)=O)cc2Cl)CCN1c1cc(-c2ccccc2)nc(N2CCC[C@H]2CO)n1` [Example 165, 5-Chloro-6-{4-[2-(2-(S)-hydroxymethyl-pyrrolidin-1-yl)-6-phenyl-pyrimidin-4-yl]-3-(R)-methyl-piperazin-1-yl}-nicotinamide], the IC50 was no more than 1000 nM.

Regarding `Cc1cc(-c2ncco2)cnc1N1CCN(c2cc(-c3ccc(F)cc3)nc(N3CCC[C@H]3C)n2)[C@H](C)C1` [Example 162, 4-(4-Fluoro-phenyl)-6-[2-(R)-methyl-4-(3-methyl-5-oxazol-2-yl-pyridin-2-yl)-piperazin-1-yl]-2-(2-(R)-methyl-pyrrolidin-1-yl)-pyrimidine], the concentration for half-maximal inhibition (IC50) was no more than 1000 nM.

Regarding `Cc1cc(C(=O)N2CCCCC2)cnc1N1CCN(c2cc(-c3ccc(F)cc3)nc(N3CCCC3C)n2)CC1` (stereo not shown) [Example 123, 4-(4-fluorophenyl)-6-{4-[3-methyl-5-(piperidin-1-ylcarbonyl)pyridin-2-yl]piperazin-1-yl}-2-(2-methylpyrrolidin-1-yl)pyrimidine], the IC50 is no more than 1000 nM.

Turning to `COC(=O)c1cnc(N2CCN(c3cc(-c4ccc(F)c(Cl)c4)nc(N4CCCC4C)n3)CC2)c(Cl)c1` (stereo not shown) [Example 20, 5-Chloro-6-{4-[6-(3-chloro-4-fluoro-phenyl)-2-(2-methyl-pyrrolidin-1-yl)-pyrimidin-4-yl]-piperazin-1-yl}-nicotinic acid methyl ester], the IC50 is no more than 1000 nM.

Take `Cc1cc([N+](=O)[O-])cnc1N1CCN(c2cc(-c3ccc(F)c(Cl)c3)nc(N3CCCC3C)n2)CC1` (stereo not shown) [Example 5, 4-(3-Chloro-4-fluoro-phenyl)-6-[4-(3-methyl-5-nitro-pyridin-2-yl)-piperazin-1-yl]-2-(2-methyl-pyrrolidin-1-yl)-pyrimidine]: the IC50 is no more than 1000 nM.

As to `Cc1cc(C(=O)O)cnc1N1CCN(c2cc(-c3ccc(F)c(Cl)c3)nc(N3CCC[C@H]3C)c2)[C@H](C)C1` [Example 178, 6-{4-[2-(3-Chloro-4-fluoro-phenyl)-6-(2-(R)-methyl-pyrrolidin-1-yl)-pyridin-4-yl]-3-(R)-methyl-piperazin-1-yl}-5-methyl-nicotinic acid], the concentration for half-maximal inhibition (IC50) is no more than 1000 nM.

With `CCOC(=O)c1cnc(N2CCN(c3cc(-c4ccccc4)nc(N4CCCC4C)n3)[C@H](C)C2)c(Cl)c1` (stereo partly drawn) [Example 41, 5-Chloro-6-{3-(R)-methyl-4-[2-(2-methyl-pyrrolidin-1-yl)-6-phenyl-pyrimidin-4-yl]-piperazin-1-yl}-nicotinic acid ethyl ester], the half-maximal inhibitory concentration (IC50) was no more than 1000 nM.

For the compound `Cc1cc(C(=O)N2CCN(C3CCCC3)CC2)cnc1N1CCN(c2cc(-c3ccc(F)cc3)nc(N3CCCC3C)n2)CC1` (stereo not shown) [Example 133, 4-(4-{5-[(4-cyclopentylpiperazin-1-yl)carbonyl]-3-methylpyridin-2-yl}piperazin-1-yl)-6-(4-fluorophenyl)-2-(2-methylpyrrolidin-1-yl)pyrimidine], the IC50 was no more than 1000 nM.

As to `C[C@@H]1CN(c2ncc(C(=O)O)cc2Cl)CCN1c1cc(-c2ccc(F)cc2)nc(N2CCCC2)n1` [Example 30, 5-Chloro-6-{4-[6-(4-fluoro-phenyl)-2-pyrrolidin-1-yl-pyrimidin-4-yl]-3-(R)-methyl-piperazin-1-yl}-nicotinic acid], the IC50 was no more than 1000 nM.

For `CCOC(=O)c1cnc(N2CCN(c3cc(-c4ccnc(C(C)C)c4)nc(N4CCCC4C)n3)[C@H](C)C2)c(Cl)c1` (stereo partly drawn) [Example 43, 5-Chloro-6-{4-[6-(2-isopropyl-pyridin-4-yl)-2-(2-methyl-pyrrolidin-1-yl)-pyrimidin-4-yl]-3-(R)-methyl-piperazin-1-yl}-nicotinic acid ethyl ester], the IC50 is no more than 1000 nM.

Turning to `COC(=O)c1cnc(N2CCN(c3cc(-c4ccc(F)c(Cl)c4)nc(N4CCCC4C)n3)[C@H](C)C2)c(Cl)c1` (stereo partly drawn) [Example 8, 5-Chloro-6-{4-[6-(3-chloro-4-fluoro-phenyl)-2-(2-methyl-pyrrolidin-1-yl)-pyrimidin-4-yl]-3-(R)-methyl-piperazin-1-yl}-nicotinic acid methyl ester], the IC50 is no more than 1000 nM.

As to `CCCN1CCN(c2nc(-c3ccc(F)c(Cl)c3)cc(N3CCN(c4ncc(CO)cc4Cl)CC3)n2)CC1` [Example 16, (5-Chloro-6-{4-[6-(3-chloro-4-fluoro-phenyl)-2-(4-propyl-piperazin-1-yl)-pyrimidin-4-yl]-piperazin-1-yl}-pyridin-3-yl)-methanol], the IC50 is no more than 1000 nM.

As to `CC1CCCN1c1nc(-c2ccc(F)cc2)cc(N2CCN(c3ncc(CC(=O)O)cc3Cl)CC2)n1` (stereo not shown) [Example 39, (5-Chloro-6-{4-[6-(4-fluoro-phenyl)-2-(2-methyl-pyrrolidin-1-yl)-pyrimidin-4-yl]-piperazin-1-yl}-pyridin-3-yl)-acetic acid], the IC50 is no more than 1000 nM.

`Cc1cc(C(=O)O)cnc1N1CCN(c2cc(-c3ccncc3)nc(N3CCCC3C)n2)[C@H](C)C1` (stereo partly drawn) [Example 70, 5-Methyl-6-{3-(R)-methyl-4-[2-(2-methyl-pyrrolidin-1-yl)-6-pyridin-4-yl-pyrimidin-4-yl]-piperazin-1-yl}-nicotinic acid]: the IC50 was no more than 1000 nM.

As to `Cc1cc(CO)cnc1N1CCN(c2cc(-c3ccncc3)nc(N3CCCC3C)n2)[C@H](C)C1` (stereo partly drawn) [Example 65, (5-Methyl-6-{3-(R)-methyl-4-[2-(2-methyl-pyrrolidin-1-yl)-6-pyridin-4-yl-pyrimidin-4-yl]-piperazin-1-yl}-pyridin-3-yl)-methanol], the IC50 is no more than 1000 nM.
